“And” between values parts separate entries of the source, which are not always exact repeats. Identical values can stand only once. “Also recorded” adds a separate entry of the source. Like-named read-outs stand apart in the source and are kept apart here.
Assays:
[1] = tested on: Salmonella typhimurium TA100; test: Ames mutagenicity test (agar plate method), strain TA100; details: for Number of revertant colonies per plate, Mean / Number of revertant colonies per plate, NR 1 / Number of revertant colonies per plate, NR 2 / Number of revertant colonies per plate, NR3 / mutagenic/cytotoxic effect (in words): TA 100; for Number of revertant colonies per plate, NR 1: plate 1; for Number of revertant colonies per plate, NR 2: plate 2; for Number of revertant colonies per plate, NR3: plate 3
Source text: The revertant bacteria are detected by their ability to grow in the absence of the amino acid required by the parent test strain. The Ames test method was employed to investigate the potential of a chemical to induce a mutagenic effect in exposed organisms. Three different Salmonella typhimurium bacteria strains ([TA98 P450], [TA100], and [TA100—P450], which simulate metabolic activation) were used in order to account for discrepancies in the way similar organisms (bacteria) may respond to test solutions.
Salmonella typhimurium bacteria were cultured on a freshly prepared nutrient broth medium (Merck, Germany), and allowed to stand overnight. Bacterial growth was confirmed by visual turbidity inspection. […] All experiments were carried out in triplicate. The mutagenicity of the PCs was further classified based on fuzzy logic four-gridded indices (Table 2).
A substance is deemed mutagenic if its mutation rate is twice or more than that of the background.
Salmonella typhimurium bacterial strains TA 98 P450, TA 100, or TA100 P450 were exposed to an equimolar concentration (10 and 100 µg/L) ternary cocktail mixtures of the L, C, and S in the Ames test.

[2] = tested on: Salmonella typhimurium TA100 P450; test: Ames mutagenicity test (agar plate method), strain TA100 P450; type: cell-based; details: for mutagenic/cytotoxic effect (in words) / Number of revertant colonies per plate, Mean: TA100 P450; for Number of revertant colonies per plate, NR 1 / Number of revertant colonies per plate, NR 2 / Number of revertant colonies per plate, NR3: TA 100 P450; for Number of revertant colonies per plate, NR 1: plate 1; for Number of revertant colonies per plate, NR 2: plate 2; for Number of revertant colonies per plate, NR3: plate 3
Procedure: (§1) Bacterial growth was confirmed by visual turbidity inspection. […] All experiments were carried out in triplicate.

[3] = tested on: root tip meristem cells of Allium cepa; test: Allium cepa root tip microscopic examination (chromosomal aberrations); type: cell-based; details: 100 µg/L; for chromosomal aberrations observed in root tip meristem: light microscopy
Procedure: (§2) Whole-onions test specimens were grown at room temperature (in triplicate). The onions were initially grown for 2 days in tap water. Prior to growing them in tap water, the ring of the root, the primordia at the bottom of the onion bulb, was scraped with a sterile surgical blade to remove all existing root growth. After 2 days of tap water exposure, the lengths of the root fibers of each onion were measured and recorded. This was followed by exposure to the test solutions for another 2 days (tap water was used as the control). […] At the end of the exposure, the onion roots were cut 3 cm from the tip and placed in Carnoy’s fixative solution ([…] (Merck, Germany)) until further microscopic analysis.
This was followed by washing the root tips in distilled water, after which they were stained using Feulgen stain for 2–3 min. The stained root tips were then rinsed in distilled water, transferred onto clean glass microscope slides, and counter-stained with acetocarmine. […] The squashed onion root tips were thereafter imaged using a LEICA DM-750 light microscope at × 400 and × 1000 magnifications.
Microscopic evaluation of Allium cepa cells during mitosis was conducted to ascertain the impacts the L, C, and S test samples (lone and mixtures) will have on the genetic materials of the onion roots at cellular levels.

[4] = tested on: Salmonella typhimurium TA98 P450; type: cell-based; details: for Number of revertant colonies per plate, NR 1: plate 1; for Number of revertant colonies per plate, NR 2: plate 2; for Number of revertant colonies per plate, NR3: plate 3
Procedure: as §1

Daphnia magna = details: for Mean mortality (n = 20): five daphnids per well, four replicates
Allium cepa = Allium cepa root length assay (phytotoxic inhibition of root growth); type: in vivo
Procedure: as §2
The test APCs and their mixtures in different combinations were investigated for their phytotoxic characteristics at 10 µg/L and 100 µg/L concentrations, using A. cepa bioassays. The root length assay relies on evaluating the root length of A. cepa as an indicator endpoint to assess the susceptibility of plants exposed to xenobiotics by evaluating physical impacts on their root growth. The ratio between the root length (mm) (RRL) after and before exposure to test solutions ( ^RLAERLBE ) was used as indices for the APCs’ phytotoxicity.

With `O=C(O)c1cn(C2CC2)c2cc(N3CCNCC3)c(F)cc2c1=O` [Ciprofloxacin, ciprofloxacin] the “Number of revertant colonies per plate, Mean” value (shortened to “Number … per plate, Mean”) ([1]; 10 µg/L) was 140, the “Number of revertant colonies per plate, NR 1” value (shortened to “Number … per plate, NR 1”) ([1]; 10 µg/L) was 140 and the “Number of revertant colonies per plate, NR 2” value (shortened to “Number … per plate, NR 2”) ([1]; 10 µg/L) was 170. For the same molecule, the “Number of revertant colonies per plate, NR3” value (shortened to “Number … per plate, NR3”) ([1]; 10 µg/L) was 110, the “Number … per plate, Mean” value ([1]; 100 µg/L) was 140 and the “mutagenic/cytotoxic effect (in words)” value ([1]; 100 µg/L) was “did not individually exert cytotoxicity”. For the same molecule, the “Number … per plate, NR 1” value ([1]; 100 µg/L) was 130, the “Number … per plate, NR 2” value ([1]; 100 µg/L) was 140 and the “Number … per plate, NR3” value ([1]; 100 µg/L) was 150. The “mutagenic/cytotoxic effect (in words)” value ([2]; 10 µg/L) was “did not exert either mutagenic or cytotoxic effects”, the “mutagenic/cytotoxic effect (in words)” value ([2]; 100 µg/L) was “did not individually exert cytotoxicity” and the “chromosomal aberrations observed in root tip meristem” value (from here on “chromosomal aberrations observed”) [3] was “uncoiling chromosome/irregular prophase”. For the same molecule, the “mutagenic/cytotoxic effect (in words)” value ([4]; 10 µg/L) was “did not exert either mutagenic or cytotoxic effects”, the “mutagenic/cytotoxic effect (in words)” value ([4]; 100 µg/L) was “to a much lesser extent mutagenic; also recorded: did not individually exert cytotoxicity; also recorded: some level of mutagenic activities” and the Mean % mortality (Daphnia magna; 10 µg/L, 24 h) was 10%. For the same molecule, the “Mean mortality (n = 20)” value (Daphnia magna; 10 µg/L, 24 h) was 0.50 ± 0.58, the Mean % mortality (Daphnia magna; 10 µg/L, 48 h) was 55% and the “Mean mortality (n = 20)” value (Daphnia magna; 10 µg/L, 48 h) was 2.75 ± 0.50. The Mean % mortality (Daphnia magna; 100 µg/L, 24 h) was 50%, the “Mean mortality (n = 20)” value (Daphnia magna; 100 µg/L, 24 h) was 2.5 ± 1.73 and the Mean % mortality (Daphnia magna; 100 µg/L, 48 h) was 75%. The “Mean mortality (n = 20)” value (Daphnia magna; 100 µg/L, 48 h) was 3.75 ± 1.26.

`Nc1ccn([C@@H]2CS[C@H](CO)O2)c(=O)n1` [Lamivudine, lamivudine] was tested, and the “A. cepa root exposure R.L” value (Allium cepa; 10 µg/L) was “-”, the “A. cepa root exposure R.L” value (Allium cepa; 100 µg/L) was “+” and the “Ames test (mutagenicity) TA 100” value [1] was “b (key: Toxic (a) x<0.5; No mutagenicity (b) x≥0.5≤1.5; Mutagenic to a lesser extent (c) x>1.5<2.0; Significantly mutagenic (d) x≥2.0)”. For the same molecule, the “Number … per plate, Mean” value ([1]; 10 µg/L) was 160, the “mutagenic/cytotoxic effect (in words)” value ([1]; 10 µg/L) was “did not exert either mutagenic or cytotoxic effects” and the “Number … per plate, NR 1” value ([1]; 10 µg/L) was 190. The “Number … per plate, NR 2” value ([1]; 10 µg/L) was 150, the “Number … per plate, NR3” value ([1]; 10 µg/L) was 140 and the “Number … per plate, Mean” value ([1]; 100 µg/L) was 163. For the same molecule, the “Number … per plate, NR 1” value ([1]; 100 µg/L) was 180, the “Number … per plate, NR 2” value ([1]; 100 µg/L) was 150 and the “Number … per plate, NR3” value ([1]; 100 µg/L) was 160. For the same molecule, the “Number … per plate, Mean” value ([2]; 10 µg/L) was 233, the “mutagenic/cytotoxic effect (in words)” value ([2]; 10 µg/L) was “did not exert either mutagenic or cytotoxic effects” and the “Number … per plate, NR 1” value ([2]; 10 µg/L) was 200. For the same molecule, the “Number … per plate, NR 2” value ([2]; 10 µg/L) was 200, the “Number … per plate, NR3” value ([2]; 10 µg/L) was 300 and the “Number … per plate, Mean” value ([2]; 100 µg/L) was 300. The “Number … per plate, NR 1” value ([2]; 100 µg/L) was 210, the “Number … per plate, NR 2” value ([2]; 100 µg/L) was 310 and the “Number … per plate, NR3” value ([2]; 100 µg/L) was 380. The “A. cepa root exposure C.A (chromosomal aberration)” value [3] was “+”, the “chromosomal aberrations observed” value [3] was “irregular prophase and metaphase” and the “Number … per plate, Mean” value ([4]; 10 µg/L) was 16. The “mutagenic/cytotoxic effect (in words)” value ([4]; 10 µg/L) was “did not exert either mutagenic or cytotoxic effects”, the “Number … per plate, NR 1” value ([4]; 10 µg/L) was 13 and the “Number … per plate, NR 2” value ([4]; 10 µg/L) was 23. The “Number … per plate, NR3” value ([4]; 10 µg/L) was 13, the “Number … per plate, Mean” value ([4]; 100 µg/L) was 18 and the “mutagenic/cytotoxic effect (in words)” value ([4]; 100 µg/L) was “to a much lesser extent mutagenic; also recorded: some level of mutagenic activities”. The “Number … per plate, NR 1” value ([4]; 100 µg/L) was 20, the “Number … per plate, NR 2” value ([4]; 100 µg/L) was 15 and the “Number … per plate, NR3” value ([4]; 100 µg/L) was 18. For the same molecule, the Mean % mortality (Daphnia magna; 10 µg/L, 24 h) was 10%, the “Mean mortality (n = 20)” value (Daphnia magna; 10 µg/L, 24 h) was 0.50 ± 0.60 and the Mean % mortality (Daphnia magna; 10 µg/L, 48 h) was 45%. For the same molecule, the “Mean mortality (n = 20)” value (Daphnia magna; 10 µg/L, 48 h) was 2.30 ± 1.00, the Mean % mortality (Daphnia magna; 100 µg/L, 24 h) was 85% and the “Mean mortality (n = 20)” value (Daphnia magna; 100 µg/L, 24 h) was 4.30 ± 1.00. The Mean % mortality (Daphnia magna; 100 µg/L, 48 h) was 100%, the “Mean mortality (n = 20)” value (Daphnia magna; 100 µg/L, 48 h) was 5.00 ± 0.00 and the “LD50 as log concentration” value (Daphnia magna; 24 h) was 1.533 log conc. (ppb). For the same molecule, the “LD50 as log concentration” value (Daphnia magna; 48 h) was 1.091 log conc. (ppb) and 1.09 log conc. (ppb), the “Toxic unit 24 hrs” value (Daphnia magna; toxic unit of the constituent in the LCS mixture, 24 h) was 1.12 and the “Toxic unit 48 hrs” value (Daphnia magna; toxic unit of the constituent in the LCS mixture, 48 h) was 1.93.

In the case of `Cc1cc(NS(=O)(=O)c2ccc(N)cc2)no1` [Sulfamethoxazole, sulfamethoxazole], the “Number … per plate, Mean” value ([1]; 10 µg/L) is reported as 123, the “Number … per plate, NR 1” value ([1]; 10 µg/L) is reported as 100 and the “Number … per plate, NR 2” value ([1]; 10 µg/L) is reported as 150. For the same molecule, the “Number … per plate, NR3” value ([1]; 10 µg/L) was 120, the “Number … per plate, Mean” value ([1]; 100 µg/L) was 117 and the “Number … per plate, NR 1” value ([1]; 100 µg/L) was 110. For the same molecule, the “Number … per plate, NR 2” value ([1]; 100 µg/L) was 110, the “Number … per plate, NR3” value ([1]; 100 µg/L) was 130 and the “chromosomal aberrations observed” value [3] was “vagrant chromosome in anaphase and alignment anaphase”. For the same molecule, the Mean % mortality (Daphnia magna; 10 µg/L, 24 h) was 15%, the “Mean mortality (n = 20)” value (Daphnia magna; 10 µg/L, 24 h) was 0.75 ± 0.50 and the Mean % mortality (Daphnia magna; 10 µg/L, 48 h) was 30%. The “Mean mortality (n = 20)” value (Daphnia magna; 10 µg/L, 48 h) was 1.50 ± 1.73, the Mean % mortality (Daphnia magna; 100 µg/L, 24 h) was 50% and the “Mean mortality (n = 20)” value (Daphnia magna; 100 µg/L, 24 h) was 2.50 ± 0.58. The Mean % mortality (Daphnia magna; 100 µg/L, 48 h) was 95% and the “Mean mortality (n = 20)” value (Daphnia magna; 100 µg/L, 48 h) was 4.75 ± 0.50.
